{"source": "ChEMBL document CHEMBL1144805", "about": "“The cephalostatin way of apoptosis” (2008)", "key": {"[1]": {"test_system": "CCRF-CEM", "assay": "Cytotoxicity against human CCRF-CEM cells", "type": "functional"}, "[2]": {"test_system": "EKVX", "assay": "Cytotoxicity against human EKVX cells", "type": "functional"}, "[3]": {"test_system": "HOP-18", "assay": "Cytotoxicity against human HOP18 cells", "type": "functional"}, "[4]": {"test_system": "HOP-62", "assay": "Cytotoxicity against human HOP62 cells", "type": "functional"}, "[5]": {"test_system": "HOP-92", "assay": "Cytotoxicity against human HOP92 cells", "type": "functional"}, "[6]": {"test_system": "NCI-H226", "assay": "Cytotoxicity against human NCI-H226 cells", "type": "functional"}, "[7]": {"test_system": "NCI-H23", "assay": "Cytotoxicity against human NCI-H23 cells", "type": "functional"}, "[8]": {"test_system": "NCI-H322M", "assay": "Cytotoxicity against human NCI-H322M cells", "type": "functional"}, "[9]": {"test_system": "NCI-H460", "assay": "Cytotoxicity against human NCI-H460 cells", "type": "functional"}, "[10]": {"test_system": "NCI-H522", "assay": "Cytotoxicity against human NCI-H522 cells", "type": "functional"}, "[11]": {"assay": "Cytotoxicity against human LXFL529 cells", "type": "functional", "details": "LXFL 529"}, "[12]": {"assay": "Cytotoxicity against human DMS144 cells", "type": "functional"}, "[13]": {"test_system": "DMS-273", "assay": "Cytotoxicity against human DMS273 cells", "type": "functional"}, "[14]": {"test_system": "COLO 205", "assay": "Cytotoxicity against human COLO205 cells", "type": "functional"}, "[15]": {"test_system": "DLD-1", "assay": "Cytotoxicity against human DLD1 cells", "type": "functional"}, "[16]": {"assay": "Cytotoxicity against human HCC2996 cells", "type": "functional"}, "[17]": {"test_system": "HCT-116", "assay": "Cytotoxicity against human HCT116 cells", "type": "functional"}, "[18]": {"test_system": "HCT-15", "assay": "Cytotoxicity against human HCT15 cells", "type": "functional"}, "[19]": {"test_system": "HT-29", "assay": "Cytotoxicity against human HT29 cells", "type": "functional"}, "[20]": {"test_system": "KM12", "assay": "Cytotoxicity against human KM12 cells", "type": "functional"}, "[21]": {"test_system": "KM-20L2", "assay": "Cytotoxicity against human KM20L2 cells", "type": "functional"}, "[22]": {"test_system": "SW-620", "assay": "Cytotoxicity against human SW620 cells", "type": "functional"}, "[23]": {"test_system": "SF-268", "assay": "Cytotoxicity against human SF268 cells", "type": "functional"}, "[24]": {"test_system": "SF-295", "assay": "Cytotoxicity against human SF295 cells", "type": "functional"}, "[25]": {"test_system": "SF-539", "assay": "Cytotoxicity against human SF539 cells", "type": "functional"}, "[26]": {"test_system": "SNB-19", "assay": "Cytotoxicity against human SNB19 cells", "type": "functional"}, "[27]": {"test_system": "SNB-75", "assay": "Cytotoxicity against human SNB75 cells", "type": "functional"}, "[28]": {"test_system": "SNB-78", "assay": "Cytotoxicity against human SNB78 cells", "type": "functional"}, "[29]": {"test_system": "U-251", "assay": "Cytotoxicity against human U251 cells", "type": "functional"}, "[30]": {"test_system": "XF498", "assay": "Cytotoxicity against human XF498 cells", "type": "functional"}, "[31]": {"test_system": "LOX IMVI", "assay": "Cytotoxicity against human LOXIMVI cells", "type": "functional"}, "[32]": {"test_system": "M14", "assay": "Cytotoxicity against human M14 cells", "type": "functional"}, "[33]": {"test_system": "M19-MEL", "assay": "Cytotoxicity against human M19-MEL cells", "type": "functional"}, "[34]": {"test_system": "SK-MEL-2", "assay": "Cytotoxicity against human SK-MEL-2 cells", "type": "functional"}, "[35]": {"test_system": "SK-MEL-28", "assay": "Cytotoxicity against human SK-MEL-28 cells", "type": "functional"}, "[36]": {"test_system": "SK-MEL-5", "assay": "Cytotoxicity against human SK-MEL-5 cells", "type": "functional"}, "[37]": {"test_system": "UACC-257", "assay": "Cytotoxicity against human UACC257 cells", "type": "functional"}, "[38]": {"test_system": "UACC-62", "assay": "Cytotoxicity against human UACC62 cells", "type": "functional"}, "[39]": {"test_system": "IGROV-1", "assay": "Cytotoxicity against human IGROV1 cells", "type": "functional"}, "[40]": {"test_system": "OVCAR-3", "assay": "Cytotoxicity against human OVCAR-3 cells", "type": "functional"}, "[41]": {"test_system": "OVCAR-4", "assay": "Cytotoxicity against human OVCAR4 cells", "type": "functional"}, "[42]": {"test_system": "OVCAR-5", "assay": "Cytotoxicity against human OVCAR5 cells", "type": "functional"}, "[43]": {"test_system": "OVCAR-8", "assay": "Cytotoxicity against human OVCAR8 cells", "type": "functional"}, "[44]": {"test_system": "SK-OV-3", "assay": "Cytotoxicity against human SK-OV-3 cells", "type": "functional"}, "[45]": {"assay": "Cytotoxicity against human […] cells", "type": "functional"}, "[46]": {"test_system": "ACHN", "assay": "Cytotoxicity against human ACHN cells", "type": "functional"}, "[47]": {"test_system": "CAKI-1", "assay": "Cytotoxicity against human CAKI1 cells", "type": "functional"}, "[48]": {"test_system": "RXF 393", "assay": "Cytotoxicity against human RXF393 cells", "type": "functional"}, "[49]": {"test_system": "SN12C", "assay": "Cytotoxicity against human SN12C cells", "type": "functional"}, "[50]": {"assay": "Cytotoxicity against human TK20 cells", "type": "functional"}, "[51]": {"test_system": "UO-31", "assay": "Cytotoxicity against human UO31 cells", "type": "functional"}, "[52]": {"test_system": "SR", "assay": "Cytotoxicity against human SR cells", "type": "functional"}, "[53]": {"test_system": "A549", "assay": "Cytotoxicity against human A549 cells", "type": "functional"}, "[54]": {"test_system": "MOLT-4", "assay": "Cytotoxicity against human MOLT4 cells", "type": "functional"}, "[55]": {"test_system": "RPMI-8226", "assay": "Cytotoxicity against human RPMI8226 cells", "type": "functional"}, "[56]": {"assay": "Cytotoxicity against human HL60(TB) cells", "type": "functional, HL-60(TB)", "details": "HL-60"}, "[57]": {"test_system": "Malme-3M", "assay": "Cytotoxicity against human MALME3M cells", "type": "functional"}, "[58]": {"assay": "Cytotoxicity against human 786-O cells", "type": "functional", "details": "786-0"}}}
{"compound": "C[C@@H]1[C@]2(O[C@H]3C=C4[C@@H]5CC[C@H]6Cc7nc8c(nc7C[C@]6(C)[C@H]5C[C@@H](O)[C@]4(C)[C@]31O)C[C@@H]1CC[C@H]3C4=CC[C@@H]5[C@H](C)[C@@]6(OC[C@]45C(=O)C[C@]3(O)[C@@]1(C)C8)OC(C)(C)C[C@H]6O)O[C@](C)(CO)C[C@H]2O", "note": "[CEPHALOSTATIN 2]", "values": [{"measurement": "GI50", "setting": "[1]", "value": 0.126, "unit": "nM"}, {"measurement": "GI50", "setting": "[2]", "value": 6.17, "unit": "nM"}, {"measurement": "GI50", "setting": "[3]", "value": 14.4, "unit": "nM"}, {"measurement": "GI50", "setting": "[4]", "value": 0.105, "unit": "nM"}, {"measurement": "GI50", "setting": "[5]", "value": 0.105, "unit": "nM"}, {"measurement": "GI50", "setting": "[6]", "value": 0.141, "unit": "nM"}, {"measurement": "GI50", "setting": "[7]", "value": 0.708, "unit": "nM"}, {"measurement": "GI50", "setting": "[8]", "value": 28.2, "unit": "nM"}, {"measurement": "GI50", "setting": "[9]", "value": 0.126, "unit": "nM"}, {"measurement": "GI50", "setting": "[10]", "value": 0.794, "unit": "nM"}, {"measurement": "GI50", "setting": "[11]", "value": 0.138, "unit": "nM"}, {"measurement": "GI50", "setting": "[12]", "value": 0.11, "unit": "nM"}, {"measurement": "GI50", "setting": "[13]", "value": 0.1, "unit": "nM"}, {"measurement": "GI50", "setting": "[14]", "value": 0.617, "unit": "nM"}, {"measurement": "GI50", "setting": "[15]", "value": 70.8, "unit": "nM"}, {"measurement": "GI50", "setting": "[16]", "value": 74.1, "unit": "nM"}, {"measurement": "GI50", "setting": "[17]", "value": 0.295, "unit": "nM"}, {"measurement": "GI50", "setting": "[18]", "value": 2.34, "unit": "nM"}, {"measurement": "GI50", "setting": "[19]", "value": 0.912, "unit": "nM"}, {"measurement": "GI50", "setting": "[20]", "value": 0.371, "unit": "nM"}, {"measurement": "GI50", "setting": "[21]", "value": 0.661, "unit": "nM"}, {"measurement": "GI50", "setting": "[22]", "value": 0.174, "unit": "nM"}, {"measurement": "GI50", "setting": "[23]", "value": 0.195, "unit": "nM"}, {"measurement": "GI50", "setting": "[24]", "value": 0.1, "unit": "nM"}, {"measurement": "GI50", "setting": "[25]", "value": 0.1, "unit": "nM"}, {"measurement": "GI50", "setting": "[26]", "value": 2.4, "unit": "nM"}, {"measurement": "GI50", "setting": "[27]", "value": 0.1, "unit": "nM"}, {"measurement": "GI50", "setting": "[28]", "value": 0.251, "unit": "nM"}, {"measurement": "GI50", "setting": "[29]", "value": 0.112, "unit": "nM"}, {"measurement": "GI50", "setting": "[30]", "value": 0.1, "unit": "nM"}, {"measurement": "GI50", "setting": "[31]", "value": 0.151, "unit": "nM"}, {"measurement": "GI50", "setting": "[32]", "value": 0.219, "unit": "nM"}, {"measurement": "GI50", "setting": "[33]", "value": 331, "unit": "nM"}, {"measurement": "GI50", "setting": "[34]", "value": 0.288, "unit": "nM"}, {"measurement": "GI50", "setting": "[35]", "value": 0.234, "unit": "nM"}, {"measurement": "GI50", "setting": "[36]", "value": 0.724, "unit": "nM"}, {"measurement": "GI50", "setting": "[37]", "value": 0.912, "unit": "nM"}, {"measurement": "GI50", "setting": "[38]", "value": 0.141, "unit": "nM"}, {"measurement": "GI50", "setting": "[39]", "value": 2.57, "unit": "nM"}, {"measurement": "GI50", "setting": "[40]", "value": 347, "unit": "nM"}, {"measurement": "GI50", "setting": "[41]", "value": 17, "unit": "nM"}, {"measurement": "GI50", "setting": "[42]", "value": 14.1, "unit": "nM"}, {"measurement": "GI50", "setting": "[43]", "value": 200, "unit": "nM"}, {"measurement": "GI50", "setting": "[44]", "value": 0.457, "unit": "nM"}, {"measurement": "GI50", "setting": "[45]", "value": 0.339, "unit": "nM"}, {"measurement": "GI50", "setting": "[46]", "value": 2.57, "unit": "nM"}, {"measurement": "GI50", "setting": "[47]", "value": 0.575, "unit": "nM"}, {"measurement": "GI50", "setting": "[48]", "value": 0.1, "unit": "nM"}, {"measurement": "GI50", "setting": "[49]", "value": 105, "unit": "nM"}, {"measurement": "GI50", "setting": "[50]", "value": 20.4, "unit": "nM"}, {"measurement": "GI50", "setting": "[51]", "value": 1.18, "unit": "nM"}, {"measurement": "GI50", "setting": "[52]", "value": 0.135, "unit": "nM"}, {"measurement": "GI50", "setting": "[53]", "value": 0.295, "unit": "nM"}, {"measurement": "GI50", "setting": "[54]", "value": 0.12, "unit": "nM"}, {"measurement": "GI50", "setting": "[55]", "value": 0.1, "unit": "nM"}, {"measurement": "GI50", "setting": "[56]", "value": 0.1, "unit": "nM"}, {"measurement": "GI50", "setting": "[57]", "value": 2.95, "unit": "nM"}, {"measurement": "GI50", "setting": "[58]", "value": 0.141, "unit": "nM"}]}
